Test results reported in patent publication US6593455B2, “Tripeptide amides that block viral infectivity and methods of use thereof” (Tripep AB, priority 2001, dated 2003).
Ends that are not written are not given here.

What follows are substances tested on HIV-1 SF-2 (assay: HIV-1 infectivity assay in H9 cells (p24 production and RT activity in culture supernatants)). Conditions: approximately 100 μm peptide.
Type: cell-based
Source text: The tripeptide amides made according to EXAMPLE 1 were used in several HIV-1 infectivity assays to determine the ability of said tripeptide amides to inhibit HIV replication and/or infection. The efficiency of HIV-1 replication and status of HIV-1 infection was monitored by reverse transcriptase activity and the concentration of p24 protein in the cell supernatant. (See e.g., U.S. Pat. Nos. 5,627,035 and 6,258,932B1, herein expressly incorporated by reference in their entireties, which describe similar HIV infectivity assays and others that can be used to analyze the tripeptide amides described herein). EXAMPLE 2 describes an approach that was used to screen several tripeptide amides for their ability to inhibit HIV-1 infection.
In this example, the methods that were used to analyze the ability of various tripeptide amides to inhibit HIV-1 replication are disclosed. Approximately 10^5 of H9 cells were infected with HIV-1 SF-2 at 25 TCID50 to test the inhibitory effect of the following synthesized tripeptides: Ser-Ile-Leu-NH2, Ile-Leu-Asp-NH2, Gly-Pro-Lys-NH2, Pro-Lys-Glu-NH2, Lys-Glu-Pro-NH2, Glu-Pro-Phe-NH2, Arg-Asp-Tyr-NH2, Asp-Tyr-Val-NH2, Tyr-Lys-Thr-NH2, Arg-Ala-Glu-NH2, Ala-Glu-Gln-NH2, Glu-Gln-Ala-NH2, Val-Lys-Asn-NH2, Thr-Glu-Thr-NH2, Leu-Leu-Val-NH2, Val-Gln-Asn-NH2, Gln-Asn-Ala,-NH2, Asn-Ala-Asn-NH2, Asn-Pro-Asp-NH2, Pro-Asp-Cys-NH2, Cys-Lys-Thr-NH2, Thr-Ile-Leu-NH2, Pro-Gly-Ala-NH2, Thr-Leu-Glu-NH2, Thr-Ala-Cys-NH2, Ala-Cys-Gln-NH2, Gln-Gly-Val-NH2, Pro-Gly-His-NH2, and Arg-Val-Leu-NH2. Accordingly, the H9 cells were resuspended with or without the different peptides (approximately 100 μm) in 1 ml of RPMI 1640 medium supplemented with 10% (v/v) heat-inactivated fetal bovine serum (FBS), penicillin (100 μ/ml), and streptomycin (100 μ/ml), all available through GIBCO, and Polybrene (2 μg/ml), available through Sigma. Thereafter, viruses were added at 25 TCID50 in a volume of 20-30 μl. Cells were incubated with virus at 37° C. for 1 hr then pelleted at 170×g for 7 minutes. The cells were then washed three times in RPMI medium with or without peptides at room temperature and pelleted at 170×g for 7 minutes, as above. After the final wash, the cells were resuspended in RPMI culture medium containing the peptides in a 24-well plate (Costar corporation) and were kept at 37° C. in 5% CO2 with humidity.
Culture supernatants were collected and analyzed when the medium was changed at 4, 7, 10, and 14 days post infection. To monitor the replication of virus, reverse transcriptase (RT) activity in the supernatants was assayed using a commercially available Lenti-RT activity kit. (Cavidi Tech, Uppsala, Sweden). The amount of RT was determined with the aid of a regression line of standards.
The presence of p24 in the supernatants was determined using a commercially available HIV p24 antigen detection kit (ELISA kit from Abbott Laboratories, North Chicago, U.S.A.). In some cases, serial dilutions of the supernatants were made so as to more accurately detect p24 concentration.
Ala-Cys-Gln-NH2 was tested, and the “inhibition of HIV-1 infection” value was “effectively inhibit HIV-1 infection”.
In the case of Ala-Glu-Gln-NH2, the “inhibition of HIV-1 infection” value is reported as “effectively inhibit HIV-1 infection”.
In the case of Arg-Ala-Glu-NH2, the “inhibition of HIV-1 infection” value is reported as “effectively inhibit HIV-1 infection”.
Arg-Asp-Tyr-NH2 was tested, and the “inhibition of HIV-1 infection” value was “effectively inhibit HIV-1 infection”.
For Arg-Val-Leu-NH2, the “inhibition of HIV-1 infection” value was “effectively inhibit HIV-1 infection”.
Asn-Ala-Asn-NH2 was tested, and the “inhibition of HIV-1 infection” value was “effectively inhibit HIV-1 infection”.
Asn-Pro-Asp-NH2 was tested, and the “inhibition of HIV-1 infection” value was “effectively inhibit HIV-1 infection”.
In the case of Asp-Tyr-Val-NH2, the “inhibition of HIV-1 infection” value is reported as “effectively inhibit HIV-1 infection”.
Cys-Lys-Thr-NH2 was tested, and the “inhibition of HIV-1 infection” value was “effectively inhibit HIV-1 infection”.
For Gln-Asn-Ala-NH2, the “inhibition of HIV-1 infection” value was “effectively inhibit HIV-1 infection”.
In the case of Gln-Gly-Val-NH2, the “inhibition of HIV-1 infection” value is reported as “effectively inhibit HIV-1 infection”.
With Glu-Gln-Ala-NH2 the “inhibition of HIV-1 infection” value was “effectively inhibit HIV-1 infection”.
Glu-Pro-Phe-NH2 was tested, and the “inhibition of HIV-1 infection” value was “effectively inhibit HIV-1 infection”.
In the case of Gly-Pro-Lys-NH2, the “inhibition of HIV-1 infection” value is reported as “effectively inhibit HIV-1 infection”.
In the case of Ile-Leu-Asp-NH2, the “inhibition of HIV-1 infection” value is reported as “effectively inhibit HIV-1 infection”.
With Leu-Leu-Val-NH2 the “inhibition of HIV-1 infection” value was “effectively inhibit HIV-1 infection”.
Lys-Glu-Pro-NH2 was tested, and the “inhibition of HIV-1 infection” value was “effectively inhibit HIV-1 infection”.
In the case of Pro-Asp-Cys-NH2, the “inhibition of HIV-1 infection” value is reported as “effectively inhibit HIV-1 infection”.
With Pro-Gly-Ala-NH2 the “inhibition of HIV-1 infection” value was “effectively inhibit HIV-1 infection”.
For Pro-Gly-His-NH2, the “inhibition of HIV-1 infection” value was “effectively inhibit HIV-1 infection”.
In the case of Pro-Lys-Glu-NH2, the “inhibition of HIV-1 infection” value is reported as “effectively inhibit HIV-1 infection”.
Ser-Ile-Leu-NH2 was tested, and the “inhibition of HIV-1 infection” value was “effectively inhibit HIV-1 infection”.
With Thr-Ala-Cys-NH2 the “inhibition of HIV-1 infection” value was “effectively inhibit HIV-1 infection”.
In the case of Thr-Glu-Thr-NH2, the “inhibition of HIV-1 infection” value is reported as “effectively inhibit HIV-1 infection”.
Thr-Ile-Leu-NH2 was tested, and the “inhibition of HIV-1 infection” value was “effectively inhibit HIV-1 infection”.
With Thr-Leu-Glu-NH2 the “inhibition of HIV-1 infection” value was “effectively inhibit HIV-1 infection”.
In the case of Tyr-Lys-Thr-NH2, the “inhibition of HIV-1 infection” value is reported as “effectively inhibit HIV-1 infection”.
For Val-Gln-Asn-NH2, the “inhibition of HIV-1 infection” value was “effectively inhibit HIV-1 infection”.
In the case of Val-Lys-Asn-NH2, the “inhibition of HIV-1 infection” value is reported as “effectively inhibit HIV-1 infection”.
